Measurements from US20120264735A1 (priority 2009, published 2012).

Target: T1, c-Met kinase (recombinant c-Met) (Homo sapiens, UniProt P08581)
T1 construct: 0.27 nM recombinant c-Met
Assay: In vitro kinase assay I (homogeneous time-resolved fluorescence tyrosine kinase assay)
Type: biochemical
How it was run: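 Biotinylated peptide (0.5 μM) phosphorylated by 0.2 nM recombinant c-Met with 50 μM MgATP, 60 min at room temperature, pH 7.4, 5% DMSO. EDTA stop; HTRF read with Eu-anti-phosphotyrosine antibody and streptavidin-APC. IC50 from 4-parameter logistic fit.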

T1 sequence (P08581 25-1390): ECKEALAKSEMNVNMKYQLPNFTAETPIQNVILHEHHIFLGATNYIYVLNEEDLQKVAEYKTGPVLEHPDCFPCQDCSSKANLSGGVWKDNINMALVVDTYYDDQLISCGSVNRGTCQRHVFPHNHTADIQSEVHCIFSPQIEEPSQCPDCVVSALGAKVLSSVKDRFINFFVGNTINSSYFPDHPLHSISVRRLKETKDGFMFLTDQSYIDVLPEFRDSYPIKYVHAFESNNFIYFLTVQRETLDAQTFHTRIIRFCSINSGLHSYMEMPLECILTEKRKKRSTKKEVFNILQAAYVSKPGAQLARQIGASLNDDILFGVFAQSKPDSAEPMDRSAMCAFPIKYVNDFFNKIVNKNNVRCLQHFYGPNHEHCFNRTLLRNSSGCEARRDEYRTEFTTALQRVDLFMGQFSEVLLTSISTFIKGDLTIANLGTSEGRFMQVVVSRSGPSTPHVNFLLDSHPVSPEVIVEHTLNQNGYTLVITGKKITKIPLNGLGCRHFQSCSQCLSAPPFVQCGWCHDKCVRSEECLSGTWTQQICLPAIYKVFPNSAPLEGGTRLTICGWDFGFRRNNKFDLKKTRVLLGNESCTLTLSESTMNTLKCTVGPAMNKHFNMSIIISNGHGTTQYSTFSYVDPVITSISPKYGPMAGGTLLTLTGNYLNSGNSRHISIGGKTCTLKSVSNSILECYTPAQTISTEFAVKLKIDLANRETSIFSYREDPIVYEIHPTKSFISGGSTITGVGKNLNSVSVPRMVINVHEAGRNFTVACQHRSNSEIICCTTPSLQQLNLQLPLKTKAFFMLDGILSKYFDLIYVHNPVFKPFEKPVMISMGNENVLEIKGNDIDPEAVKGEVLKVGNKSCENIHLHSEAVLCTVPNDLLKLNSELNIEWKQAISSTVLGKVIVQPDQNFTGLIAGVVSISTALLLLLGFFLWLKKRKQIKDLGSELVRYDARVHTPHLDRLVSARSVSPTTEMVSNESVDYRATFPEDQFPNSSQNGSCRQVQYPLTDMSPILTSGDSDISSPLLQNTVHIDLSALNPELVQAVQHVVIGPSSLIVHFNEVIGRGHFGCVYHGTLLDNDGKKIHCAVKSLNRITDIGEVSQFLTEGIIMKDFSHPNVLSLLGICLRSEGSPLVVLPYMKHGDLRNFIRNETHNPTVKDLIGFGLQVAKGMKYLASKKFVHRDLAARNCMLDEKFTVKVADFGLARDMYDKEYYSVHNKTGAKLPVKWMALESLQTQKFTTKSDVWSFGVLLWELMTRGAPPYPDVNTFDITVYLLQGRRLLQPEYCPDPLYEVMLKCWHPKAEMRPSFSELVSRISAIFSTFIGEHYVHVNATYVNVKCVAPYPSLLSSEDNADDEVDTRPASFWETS

Row | IC50 [nM] | SMILES
1 | < 100 | CN(C)Cc1cnc(-c2cccc(Cc3nn(-c4cnn(C)c4)ccc3=O)c2)nc1 [Example 430, 3-(3-{5-[(dimethylamino)methyl]pyrimidin-2-yl}benzyl)-1-(1-methyl-1H-pyrazol-4-yl)pyridazin-4(1H)-one]
2 | < 100 | Cn1cc(-n2ccc(=O)c(Cc3cccc(-c4ncc(N5CCCCC5)cn4)c3)n2)cn1 [Example 441, 1-(1-methyl-1H-pyrazol-4-yl)-3-[3-(5-piperidin-1-ylpyrimidin-2-yl)benzyl]pyridazin-4(1H)-one]
3 | < 100 | Cn1cc(-n2ccc(=O)c(Cc3cccc(-c4ncc(N5CCC(O)CC5)cn4)c3)n2)cn1 [Example 442, 3-{3-[5-(4-hydroxypiperidin-1-yl)pyrimidin-2-yl]benzyl}-1-(1-methyl-1H-pyrazol-4-yl)pyridazin-4(1H)-one]
4 | < 100 | CN(C)C1CCN(c2cnc(-c3cccc(Cc4nn(-c5cnn(C)c5)ccc4=O)c3)nc2)CC1 [Example 444, 3-(3-{5-[4-(dimethylamino)piperidin-1-yl]pyrimidin-2-yl}benzyl)-1-(1-methyl-1H-pyrazol-4-yl)pyridazin-4(1H)-one]
5 | < 100 | Cn1cc(-n2ccc(=O)c(Cc3cccc(-c4ncc(N5CCC(C(N)=O)CC5)cn4)c3)n2)cn1 [Example 445, 1-[2-(3-{[1-(1-methyl-1H-pyrazol-4-yl)-4-oxo-1,4-dihydropyridazin-3-yl]methyl}phenyl)pyrimidin-5-yl]piperidine-4-carboxamide]
6 | < 100 | Cn1cc(-n2ccc(=O)c(Cc3cccc(-c4ncc(N5CCC(F)(F)C5)cn4)c3)n2)cn1 [Example 447, 3-{3-[5-(3,3-difluoropyrrolidin-1-yl)pyrimidin-2-yl]benzyl}-1-(1-methyl-1H-pyrazol-4-yl)pyridazin-4(1H)-one]
7 | < 100 | Cn1cc(-n2ccc(=O)c(Cc3cccc(-c4ncc(N5CCS(=O)(=O)CC5)cn4)c3)n2)cn1 [Example 448, 3-{3-[5-(1,1-dioxidothio-morpholin-4-yl]pyrimidin-2-yl]benzyl}-1-(1-methyl-1H-pyrazol-4-yl)pyridazin-4(1H)-one]
8 | < 100 | CN1CCN(c2cnc(-c3cccc(Cc4nn(-c5cnn(C)c5)ccc4=O)c3)nc2)CC1 [Example 467, 3-{3-[5-(4-methyl-piperazin-1-yl)pyrimidin-2-yl]benzyl}-1-(1-methyl-1H-pyrazol-4-yl)pyridazin-4(1H)-one]
9 | < 100 | Cn1cc(-n2ccc(=O)c(Cc3cccc(-c4ncc(N5CCCC5)cn4)c3)n2)cn1 [Example 470, 1-(1-methyl-1H-pyrazol-4-yl)-3-[3-(5-pyrrolidin-1-ylpyrimidin-2-yl)benzyl]pyridazin-4(1H)-one]
10 | < 100 | Cn1cc(-n2ccc(=O)c(Cc3cccc(-c4ncc(N5CCOCC5)cn4)c3)n2)cn1 [Example 472, 1-(1-methyl-1H-pyrazol-4-yl)-3-[3-(5-morpholin-4-ylpyrimidin-2-yl)benzyl]pyridazin-4(1H)-one]

Continued, compound first:

Row | SMILES | IC50 [nM]
11 | Cn1cc(-n2ccc(=O)c(Cc3cccc(-c4ncc(CNC5CCCCC5)cn4)c3)n2)cn1 [Example 432, 3-(3-{5-[(cyclohexyl-amino)methyl]pyrimidin-2-yl}benzyl)-1-(1-methyl-1H-pyrazol-4-yl)pyridazin-4(1H)-one] | 100 to 1000
12 | Cn1cc(-n2ccc(=O)c(Cc3cccc(-c4ncc(CN5CCNCC5)cn4)c3)n2)cn1 [Example 433] | < 100
13 | Cn1cc(-n2ccc(=O)c(Cc3cccc(-c4ncc(-c5cnn(C6COC6)c5)cn4)c3)n2)cn1 [Example 435, 1-(1-Methyl-1H-pyrazol-4-yl)-3-{3-[5-(1-oxetan-3-yl-1H-pyrazol-4-yl)pyrimidin-2-yl]benzyl}pyridazin-4(1H)-one] | < 100
14 | CC(C)c1cnc(-c2cccc(Cc3nn(-c4cnn(C)c4)ccc3=O)c2)nc1 [Example 436, 1-(1-Methyl-1H-pyrazol-4-yl)-3-{3-[5-(propan-2-yl)pyrimidin-2-yl]benzyl}pyridazin-4(1H)-one] | < 100
15 | Cn1cc(-n2ccc(=O)c(Cc3cccc(-c4ncc(CCC(C)(C)O)cn4)c3)n2)cn1 [Example 437, 3-{3-[5-(3-hydroxy-3-methylbutyl)pyrimidin-2-yl]benzyl}-1-(1-methyl-1H-pyrazol-4-yl)pyridazin-4(1H)-one] | < 100
16 | CN(C)CCCc1cnc(-c2cccc(Cc3nn(-c4cnn(C)c4)ccc3=O)c2)nc1 [Example 438, 3-(3-{5-[3-(dimethylamino)propyl]pyrimidin-2-yl}benzyl)-1-(1-methyl-1H-pyrazol-4-yl)pyridazin-4(1H)-one] | < 100
17 | COCCCc1cnc(-c2cccc(Cc3nn(-c4cnn(C)c4)ccc3=O)c2)nc1 [Example 439, 3-{3-[5-(3-methoxypropyl)pyrimidin-2-yl]benzyl}-1-(1-methyl-1H-pyrazol-4-yl)pyridazin-4(1H)-one] | < 100
18 | CCCNc1cnc(-c2cccc(Cc3nn(-c4cnn(C)c4)ccc3=O)c2)nc1 [Example 451, 1-(1-Methyl-1H-pyrazol-4-yl)-3-{3-[5-(propylamino)pyrimidin-2-yl]benzyl}pyridazin-4(1H)-one] | < 100
19 | CCNc1cnc(-c2cccc(Cc3nn(-c4cnn(C)c4)ccc3=O)c2)nc1 [Example 452] | < 100
20 | COCCNc1cnc(-c2cccc(Cc3nn(-c4cnn(C)c4)ccc3=O)c2)nc1 [Example 453, 3-(3-{5-[(2-methoxyethyl)amino]pyrimidin-2-yl}benzyl)-1-(1-methyl-1H-pyrazol-4-yl)pyridazin-4(1H)-one] | < 100
21 | CCOCCNc1cnc(-c2cccc(Cc3nn(-c4cnn(C)c4)ccc3=O)c2)nc1 [Example 454, 3-(3-{5-[(2-ethoxyethyl)amino]pyrimidin-2-yl}benzyl)-1-(1-methyl-1H-pyrazol-4-yl)pyridazin-4(1H)-one] | < 100
22 | CCCN(C)c1cnc(-c2cccc(Cc3nn(-c4cnn(C)c4)ccc3=O)c2)nc1 [Example 456, 3-(3-{5-[Methyl(propyl)amino]pyrimidin-2-yl}benzyl)-1-(1-methyl-1H-pyrazol-4-yl)pyridazin-4(1H)-one] | < 100
23 | COCCC(=O)Nc1cnc(-c2cccc(Cc3nn(-c4cnn(C)c4)ccc3=O)c2)nc1 [Example 458, 3-Methoxy-N-[2-(3-{[1-(1-methyl-1H-pyrazol-4-yl)-4-oxo-1,4-dihydropyridazin-3-yl]methyl}phenyl)pyrimidin-5-yl]propanamide] | < 100
24 | Cn1cc(-n2ccc(=O)c(Cc3cccc(-c4ncc(NC(=O)CC5CCOCC5)cn4)c3)n2)cn1 [Example 459, N-[2-(3-{[1-(1-methyl-1H-pyrazol-4-yl)-4-oxo-1,4-dihydro-pyridazin-3-yl]methyl}phenyl)pyrimidin-5-yl]-2-(tetrahydro 2H-pyran-4-yl)acetamide] | < 100
25 | CCC(=O)Nc1cnc(-c2cccc(Cc3nn(-c4cnn(C)c4)ccc3=O)c2)nc1 [Example 460, N-[2-(3-{[1-(1-methyl-1H-pyrazol-4-yl)-4-oxo-1,4-dihydro-pyridazin-3-yl]methyl}phenyl)pyrimidin-5-yl}propanamide] | < 100
26 | COCC(=O)Nc1cnc(-c2cccc(Cc3nn(-c4cnn(C)c4)ccc3=O)c2)nc1 [Example 461, 2-methoxy-N-[2-(3-{[1-(1-methyl-1H-pyrazol-4-yl)-4-oxo-1,4-dihydro-pyridazin-3-yl]methyl}phenyl)pyrimidin-5-yl]acetamide] | < 100
27 | Cn1cc(-n2ccc(=O)c(Cc3cccc(-c4ncc(NC(=O)CN5CCCC5=O)cn4)c3)n2)cn1 [Example 463, N-[2-(3-{[1-(1-methyl-1H-pyrazol-4-yl)-4-oxo-1,4-dihydro-pyridazin-3-yl]methyl}phenyl)pyrimidin-5-yl]-2-(2-oxopyrrolidin-1-yl)acetamide] | < 100
28 | Cn1cc(-n2ccc(=O)c(Cc3cccc(-c4ncc(Br)cn4)c3)n2)cn1 [Example 465, 3-[3-(5-Bromopyrimidin-2-yl)benzyl]-1-(1-methyl-1H-pyrazol-4-yl)pyridazin-4(1H)-one] | < 100
29 | Cn1cc(-n2ccc(=O)c(Cc3cccc(-c4ncc(N5CCN(C(=O)OC(C)(C)C)CC5)cn4)c3)n2)cn1 [Example 471, tert-butyl 4-[2-(3-{[1-(1-methyl-1H-pyrazol-4-yl)-4-oxo-1,4-dihydro-pyridazin-3-yl]methyl}phenyl)pyrimidin-5-yl]piperazine-1-carboxylate] | < 100
30 | Cn1cc(-n2ccc(=O)c(Cc3cccc(-c4ncc(-n5cnnc5)cn4)c3)n2)cn1 [Example 473, 1-(1-Methyl-1H-pyrazol-4-yl)-3-{3-[5-(4H-1,2,4-triazol-4-yl)pyrimidin-2-yl]benzyl}pyridazin-4(1H)-one] | < 100
31 | Cn1cc(-n2ccc(=O)c(Cc3cccc(-c4ncc(C(=O)NCCN5CCOCC5)cn4)c3)n2)cn1 [Example 477, 2-(3-{[1-(1-methyl-1H-pyrazol-4-yl)-4-oxo-1,4-dihydro-pyridazin-3-yl]methyl}phenyl)-N-(2-morpholin-4-ylethyl)pyrimidine-5-carboxamide] | < 100
32 | CN1CCN(CCCNC(=O)c2cnc(-c3cccc(Cc4nn(-c5cnn(C)c5)ccc4=O)c3)nc2)CC1 [Example 479, N-[3-(4-methyl-piperazin-1-yl)propyl]-2-(3-{[1-(1-methyl-1H-pyrazol-4-yl)-4-oxo-1,4-dihydro-pyridazin-3-yl]methyl}phenyl)pyrimidine-5-carboxamide] | < 100
33 | CC(C)CNC(=O)c1cnc(-c2cccc(Cc3nn(-c4cnn(C)c4)ccc3=O)c2)nc1 [Example 480, N-(2-methylpropyl)-2-(3-{[1-(1-methyl-1H-pyrazol-4-yl)-4-oxo-1,4-dihydro-pyridazin-3-yl]methyl}phenyl)pyrimidine-5-carboxamide] | < 100
34 | Cn1cc(-n2ccc(=O)c(Cc3cccc(-c4ncc(C(=O)NCC(F)(F)F)cn4)c3)n2)cn1 [Example 481, 2-(3-{[1-(1-methyl-1H-pyrazol-4-yl)-4-oxo-1,4-dihydro-pyridazin-3-yl]methyl}phenyl)-N-(2,2,2-trifluoroethyl)pyrimidine-5-carboxamide] | < 100
